Test results reported in patent publication US8415469B2, “Compounds and methods for kinase modulation, and indications therefor” (Plexxikon Inc., priority 2005, dated 2013).

What was measured:
Type in all cases: biochemical
Ret = target: T1, Ret (Homo sapiens, UniProt P07949); assay: AlphaScreen kinase assay, Ret; details: read-out: IC50, activity toward kinase Ret
T1 construct: P1378.pET-SF BI-PTP RET H661-R1012 HIS; made in house
T1 sequence (P07949 with tags, fused parts or gaps): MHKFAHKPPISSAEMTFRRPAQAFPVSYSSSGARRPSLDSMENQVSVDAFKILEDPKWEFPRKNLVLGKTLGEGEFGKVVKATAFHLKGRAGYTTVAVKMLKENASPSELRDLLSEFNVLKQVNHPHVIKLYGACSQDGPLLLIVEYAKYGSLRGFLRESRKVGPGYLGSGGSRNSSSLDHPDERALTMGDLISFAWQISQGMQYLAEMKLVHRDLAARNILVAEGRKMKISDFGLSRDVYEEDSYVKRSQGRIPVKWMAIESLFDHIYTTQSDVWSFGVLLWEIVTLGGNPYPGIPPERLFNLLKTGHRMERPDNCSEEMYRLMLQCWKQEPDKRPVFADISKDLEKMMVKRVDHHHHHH
Description: (§1) AlphaScreen assay was used to screen additional kinases. The assay is similarly dependent on the phosphorylation of a peptide substrate. In this assay, an antibody that recognizes phosphorylated substrate is bound to an acceptor bead. The peptide substrate is attached to biotin, which binds to a donor head that contains streptavidin. Thus phosphorylated substrate is bound by antibody and streptavidin, bringing the donor and acceptor heads into close proximity when kinase is not inhibited. The donor produces singlet oxygen which results in emission from the acceptor when they are in close proximity. Conversely, when kinase is inhibited, the donor and acceptor beads are not associated and the emission from the acceptor is reduced.
(§2) AlphaScreen assays were done using compounds dissolved in DMSO to a concentration of 20 mM. The compounds were diluted accordingly to the desired final concentrations in each sample well, using 1:3 serial dilution for a total of 8 concentration points. Plates were prepared such that each kinase reaction is 20 μl in 1× kinase buffer, 5% DMSO and 10 μM ATP. After incubation of the kinase reaction for 1 hour at room temperature, 5 μl of donor beads in stop buffer (50 mM EDTA in 1× kinase buffer) was added, the sample was mixed and incubated for 20 minutes at room temperature before adding 5 μl of acceptor beads in stop buffer. The samples were incubated for 60 minutes at room temperature and the signal per well was read on AlphaQuest reader.

B-Raf = target: T2, B-Raf (Homo sapiens, UniProt P15056); assay: AlphaScreen kinase assay, B-Raf; details: read-out: IC50, activity toward kinase B-Raf
T2 construct: purchased Upstate Biotechnology
T2 sequence (P15056 whole entry): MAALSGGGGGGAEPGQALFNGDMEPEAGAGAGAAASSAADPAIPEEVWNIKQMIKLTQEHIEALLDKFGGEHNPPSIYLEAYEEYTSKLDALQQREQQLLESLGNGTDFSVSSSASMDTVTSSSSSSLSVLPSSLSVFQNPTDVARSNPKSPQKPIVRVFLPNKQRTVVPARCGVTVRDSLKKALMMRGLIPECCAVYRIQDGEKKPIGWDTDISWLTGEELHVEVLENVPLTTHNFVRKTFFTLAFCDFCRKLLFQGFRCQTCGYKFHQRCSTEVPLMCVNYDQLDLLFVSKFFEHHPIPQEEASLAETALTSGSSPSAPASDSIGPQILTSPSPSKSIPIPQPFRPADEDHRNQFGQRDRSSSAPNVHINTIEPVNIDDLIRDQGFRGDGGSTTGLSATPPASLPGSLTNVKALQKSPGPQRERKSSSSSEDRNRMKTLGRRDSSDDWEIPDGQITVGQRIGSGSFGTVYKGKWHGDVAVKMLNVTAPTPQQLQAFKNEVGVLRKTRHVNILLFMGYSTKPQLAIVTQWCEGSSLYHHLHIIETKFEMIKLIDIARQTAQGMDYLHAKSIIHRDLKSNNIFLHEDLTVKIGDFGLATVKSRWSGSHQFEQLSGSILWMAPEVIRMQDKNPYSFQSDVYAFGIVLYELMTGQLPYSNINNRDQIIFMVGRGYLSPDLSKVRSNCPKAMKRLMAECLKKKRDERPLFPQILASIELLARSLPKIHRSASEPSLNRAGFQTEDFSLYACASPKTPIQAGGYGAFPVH

B-Raf V600E = target: T3, B-Raf V600E (Homo sapiens, UniProt P15056, V600E); assay: AlphaScreen kinase assay, B-Raf V600E; details: read-out: IC50, activity toward kinase B-Raf V600E
T3 construct: P4254. pFastBacBD-CDC37 BRAF D437-K722-X, V600E; His6 with pFastBac HT leader (TEV site) (N); made in house; host or cells: Sf9 (baculovirus; chaperone CDC37 co-expressed)
T3 sequence (P15056 with tags, fused parts or gaps V600E): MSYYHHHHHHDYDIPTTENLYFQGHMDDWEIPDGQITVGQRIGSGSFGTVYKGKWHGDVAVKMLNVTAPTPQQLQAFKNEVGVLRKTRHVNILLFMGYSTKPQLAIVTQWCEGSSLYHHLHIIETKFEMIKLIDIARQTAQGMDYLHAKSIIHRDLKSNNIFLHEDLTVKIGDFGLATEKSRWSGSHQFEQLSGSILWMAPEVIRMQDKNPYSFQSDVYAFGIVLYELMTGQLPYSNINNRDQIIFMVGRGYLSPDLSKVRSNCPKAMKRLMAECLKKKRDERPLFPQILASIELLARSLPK
Description: as §1, §2

Fms = target: T4, Fms (Homo sapiens, UniProt P07333); assay: AlphaScreen kinase assay, Fms; details: read-out: IC50, activity toward kinase Fms
T4 construct: purchased Upstate Biotechnology
T4 sequence (P07333 20-972): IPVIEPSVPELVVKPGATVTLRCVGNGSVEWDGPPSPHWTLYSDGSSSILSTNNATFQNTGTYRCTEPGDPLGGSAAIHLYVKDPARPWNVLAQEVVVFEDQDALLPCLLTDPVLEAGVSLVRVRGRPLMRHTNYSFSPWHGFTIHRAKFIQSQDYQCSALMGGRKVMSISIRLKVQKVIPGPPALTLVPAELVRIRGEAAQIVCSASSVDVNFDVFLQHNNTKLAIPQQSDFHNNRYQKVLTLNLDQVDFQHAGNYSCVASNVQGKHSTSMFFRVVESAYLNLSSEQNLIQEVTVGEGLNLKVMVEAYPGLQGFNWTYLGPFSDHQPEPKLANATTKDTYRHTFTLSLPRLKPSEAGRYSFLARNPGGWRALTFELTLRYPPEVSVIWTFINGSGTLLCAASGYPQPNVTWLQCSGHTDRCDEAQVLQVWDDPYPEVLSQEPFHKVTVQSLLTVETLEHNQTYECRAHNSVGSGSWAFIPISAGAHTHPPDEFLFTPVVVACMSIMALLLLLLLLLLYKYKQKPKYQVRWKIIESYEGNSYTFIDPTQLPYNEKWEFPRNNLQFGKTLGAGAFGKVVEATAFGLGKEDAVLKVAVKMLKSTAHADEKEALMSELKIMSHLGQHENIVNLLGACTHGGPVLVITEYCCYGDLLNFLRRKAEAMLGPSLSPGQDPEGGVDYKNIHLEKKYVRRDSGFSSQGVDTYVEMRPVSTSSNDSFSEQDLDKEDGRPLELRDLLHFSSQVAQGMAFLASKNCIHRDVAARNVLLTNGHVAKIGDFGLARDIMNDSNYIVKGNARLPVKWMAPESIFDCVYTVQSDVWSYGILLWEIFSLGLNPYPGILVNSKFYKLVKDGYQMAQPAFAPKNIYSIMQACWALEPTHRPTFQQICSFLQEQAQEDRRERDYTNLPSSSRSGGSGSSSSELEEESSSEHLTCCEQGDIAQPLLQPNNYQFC

Kit = target: T5, Kit (Homo sapiens, UniProt P10721); assay: AlphaScreen kinase assay, Kit; details: read-out: IC50, activity toward kinase Kit
T5 construct: P1332.N6 BI PTP KIT M552-K948-X COD; His6 (N); made in house; host or cells: E. coli (PTP1B co-expressed)
T5 sequence (P10721 with tags, fused parts or gaps): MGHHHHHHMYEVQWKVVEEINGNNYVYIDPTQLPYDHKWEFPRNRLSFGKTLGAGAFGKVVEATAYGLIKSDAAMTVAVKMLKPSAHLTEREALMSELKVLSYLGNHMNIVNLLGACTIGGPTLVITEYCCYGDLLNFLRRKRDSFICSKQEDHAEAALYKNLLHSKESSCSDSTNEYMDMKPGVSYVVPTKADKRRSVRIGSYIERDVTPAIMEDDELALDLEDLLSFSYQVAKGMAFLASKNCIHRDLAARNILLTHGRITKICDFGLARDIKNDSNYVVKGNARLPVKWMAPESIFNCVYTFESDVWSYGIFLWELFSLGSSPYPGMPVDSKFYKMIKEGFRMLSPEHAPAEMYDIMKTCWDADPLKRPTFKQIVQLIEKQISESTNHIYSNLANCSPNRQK

FGFR1 = target: T6, FGFR1 (Homo sapiens, UniProt P11362, C488A/C584S); assay: AlphaScreen kinase assay, FGFR1; details: read-out: IC50, activity toward kinase FGFR
T6 construct: P1351.pET N6 BI-PTP FGFR A458-E765-X C488A, C584S; made in house; host or cells: E. coli (PTP1B co-expressed)
T6 sequence (P11362 458-765 C488A/C584S): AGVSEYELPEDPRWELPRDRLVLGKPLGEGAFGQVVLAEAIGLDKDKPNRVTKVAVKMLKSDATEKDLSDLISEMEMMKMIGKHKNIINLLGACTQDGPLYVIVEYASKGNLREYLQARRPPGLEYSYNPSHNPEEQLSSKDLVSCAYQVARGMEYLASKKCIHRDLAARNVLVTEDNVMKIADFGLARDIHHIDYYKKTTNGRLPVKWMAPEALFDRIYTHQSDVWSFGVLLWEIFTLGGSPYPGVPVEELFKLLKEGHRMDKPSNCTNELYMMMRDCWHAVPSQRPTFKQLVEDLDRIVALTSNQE

Measured: IC50

CC(=O)Nc1cccc(-c2ccnc3[nH]cc(C(=O)c4ccc(Cl)cc4)c23)c1 [Compound P-1075]
≤ 10 µM: Ret

Cc1cc(C(=O)c2c[nH]c3nccc(-c4cccc(C(N)=O)c4)c23)no1 [Compound P-1036]
≤ 10 µM: Ret

Cc1cc(C(=O)c2c[nH]c3ncc(Br)cc23)no1 [Compound P-0608]
≤ 10 µM: Ret

Fc1ccc(-c2c(CNCc3ccccc3)[nH]c3ncccc23)cc1 [Compound P-0517]
≤ 10 µM: Ret

Cn1cc(-c2cnc3[nH]cc(C(=O)c4c(F)ccc(NS(=O)(=O)c5cccc(F)c5)c4F)c3c2)cn1 [Compound P-1997, N-{2,4-Difluoro-3-[5-(1-methyl-1H-pyrazol-4-yl)-1H-pyrrolo[2,3-b]pyridine-3-carbonyl]-phenyl}-3-fluoro-benzenesulfonamide]
≤ 10 µM: B-Raf | B-Raf V600E | Fms | Kit

O=C(Nc1ccc(Cl)cc1)Nc1cccc(C(=O)c2c[nH]c3ncccc23)c1 [Compound P-1709, 1-(4-Chloro-phenyl)-3-[3-(1H-pyrrolo[2,3-b]pyridine-3-carbonyl)-phenyl]-urea]
≤ 10 µM: B-Raf | B-Raf V600E | Fms | Kit

COc1ccc(-c2ccnc3[nH]cc(C(=O)c4ccccc4C)c23)cn1 [Compound P-0536]
≤ 10 µM: Ret

Cn1cc(-c2cnc3[nH]cc(C(=O)c4c(F)ccc(NS(=O)(=O)c5ccc(C(F)(F)F)cc5)c4F)c3c2)cn1 [Compound P-1996, N-{2,4-Difluoro-3-[5-(1-methyl-1H-pyrazol-4-yl)-1H-pyrrolo[2,3-b]pyridine-3-carbonyl]-phenyl}-4-trifluoromethyl-benzenesulfonamide]
≤ 10 µM: B-Raf | B-Raf V600E | Fms | Kit

O=C(c1c(F)ccc(NS(=O)(=O)c2ccsc2)c1F)c1c[nH]c2ncc(Br)cc12 [Compound P-1798, Thiophene-3-sulfonic acid [3-(5-bromo-1H-pyrrolo[2,3-b]pyridine-3-carbonyl)-2,4-difluoro-phenyl]-amide]
≤ 10 µM: B-Raf | B-Raf V600E | Fms | Kit

Cc1cccc(NC(=O)Nc2cccc(C(=O)c3c[nH]c4ncccc34)c2)c1 [Compound P-1719, 1-[3-(1H-Pyrrolo[2,3-b]pyridine-3-carbonyl)-phenyl]-3-m-tolyl-urea]
≤ 10 µM: B-Raf | B-Raf V600E | Fms | Kit

COc1ccc(F)c(C(=O)c2c[nH]c3ncc(Br)cc23)c1 [Compound P-0284]
not listed: Ret
≤ 10 µM: all other assays above

N#Cc1ccc(S(=O)(=O)Nc2ccc(F)c(C(=O)c3c[nH]c4ncc(Cl)cc34)c2F)cc1 [Compound P-1822, N-[3-(5-Chloro-1H-pyrrolo[2,3-b]pyridine-3-carbonyl)-2,4-difluoro-phenyl]-4-cyano-benzenesulfonamide]
≤ 10 µM: B-Raf | B-Raf V600E | Fms | Kit

CCCS(=O)(=O)Nc1ccc(F)c(C(=O)c2c[nH]c3ncc(-c4ccc(OCCOC)cc4)cc23)c1F [Compound P-1998, Propane-1-sulfonic acid (2,4-difluoro-3-{5-[4-(2-methoxy-ethoxy)-phenyl]-1H-pyrrolo[2,3-b]pyridine-3-carbonyl}-phenyl)-amide]
≤ 10 µM: B-Raf | B-Raf V600E | Fms | Kit

CCCS(=O)(=O)Nc1ccc(F)c(C(=O)c2c[nH]c3ncc(-c4cc(C)c(C#N)c(C)c4)cc23)c1F [Compound P-1980, Propane-1-sulfonic acid {3-[5-(4-cyano-3,5-dimethyl-phenyl)-1H-pyrrolo[2,3-b]pyridine-3-carbonyl]-2,4-difluoro-phenyl}-amide]
≤ 10 µM: B-Raf | B-Raf V600E | Fms | Kit

O=C(c1c(F)ccc(NS(=O)(=O)c2ccc(F)cc2)c1F)c1c[nH]c2ncc(Cl)cc12 [Compound P-1840, N-[3-(5-Chloro-1H-pyrrolo[2,3-b]pyridine-3-carbonyl)-2,4-difluoro-phenyl]-4-fluoro-benzenesulfonamide]
≤ 10 µM: B-Raf | B-Raf V600E | Fms | Kit

COCCOc1cnc2[nH]cc(C(=O)c3c(F)ccc(NS(=O)(=O)c4ccc(F)cc4)c3F)c2c1 [Compound P-1872, N-{2,4-Difluoro-3-[5-(2-methoxy-ethoxy)-1H-1-pyrrolo[2,3-b]pyridine-3-carbonyl]-phenyl}-4-fluoro-benzenesulfonamide]
≤ 10 µM: B-Raf | B-Raf V600E | Fms | Kit

CCCS(=O)(=O)Nc1ccc(F)c(C(=O)c2c[nH]c3ncc(-c4nc(C)c[nH]4)cc23)c1F [Compound P-2006, Propane-1-sulfonic acid {2,4-difluoro-3-[5-(4-methyl-1H-imidazol-2-yl)-1H-pyrrolo[2,3-b]pyridine-3-carbonyl]-phenyl}-amide]
≤ 10 µM: B-Raf | B-Raf V600E | Fms

COCCOc1cnc2[nH]cc(C(=O)c3c(F)ccc(NS(=O)(=O)c4ccc(C(F)(F)F)cc4)c3F)c2c1 [Compound P-2005, N-{2,4-Difluoro-3-[5-(2-methoxy-ethoxy)-1H-pyrrolo[2,3-b]pyridine-3-carbonyl]-phenyl}-4-trifluoromethyl-benzenesulfonamide]
≤ 10 µM: B-Raf | B-Raf V600E | Fms

COCCOc1ccc(-c2cnc3[nH]cc(C(=O)c4c(F)ccc(NS(=O)(=O)c5ccc(C(F)(F)F)cc5)c4F)c3c2)cc1 [Compound P-2013, N-(2,4-Difluoro-3-{5-[4-(2-methoxy-ethoxy)-phenyl]-1H-pyrrolo[2,3-b]pyridine-3-carbonyl}-phenyl)-4-trifluoromethyl-benzenesulfonamide]
≤ 10 µM: B-Raf | B-Raf V600E | Fms

O=C(Nc1cccc(C(=O)c2c[nH]c3ncccc23)c1)Nc1ccc(C(F)(F)F)c(Cl)c1 [Compound P-1766, 1-(3-Chloro-4-trifluoromethyl-phenyl)-3-[3-(1H-pyrrolo[2,3-b]pyridine-3-carbonyl)-phenyl]-urea]
≤ 10 µM: B-Raf | B-Raf V600E | Fms

O=C(c1ccc(F)cc1F)c1c[nH]c2ncc(-c3cccnc3)cc12 [Compound P-1555]
≤ 10 µM: B-Raf | FGFR1 | Fms

O=C(c1cccc(NS(=O)(=O)c2ccc(C(F)(F)F)cc2)c1)c1c[nH]c2ncccc12 [Compound P-1784]
≤ 10 µM: B-Raf | B-Raf V600E | Fms

COc1ccc(NC(=O)Nc2cccc(C(=O)c3c[nH]c4ncc(Cl)cc34)c2)cn1 [Compound P-1774, 1-[3-(5-Chloro-1H-pyrrolo[2,3-b]pyridine-3-carbonyl)-phenyl]-3-(6-methoxy-pyridin-3-yl)-urea]
≤ 10 µM: B-Raf | B-Raf V600E | Fms

O=C(c1cc(NS(=O)(=O)c2cccc(F)c2)ccc1Cl)c1c[nH]c2ncc(Cl)cc12 [Compound P-1663]
≤ 10 µM: B-Raf | B-Raf V600E | Fms

COc1cc(NC(=O)Nc2cccc(C(=O)c3c[nH]c4ncccc34)c2)cc(C(F)(F)F)c1 [Compound P-1762, 1-(3-Methoxy-5-trifluoromethyl-phenyl)-3-[3-(1H-pyrrolo[2,3-b]pyridine-3-carbonyl)-phenyl]-urea]
≤ 10 µM: B-Raf | B-Raf V600E | Fms

COc1ccc(NC(=O)Nc2cccc(C(=O)c3c[nH]c4ncccc34)c2)cc1 [Compound P-1705, 1-(4-Methoxy-phenyl)-3-[3-(1H-pyrrolo[2,3-b]pyridine-3-carbonyl)-phenyl]-urea]
≤ 10 µM: B-Raf | B-Raf V600E | Fms | Kit

Cc1ccc(NC(=O)Nc2cccc(C(=O)c3c[nH]c4ncccc34)c2)cc1 [Compound P-1718, 1-[3-(1H-Pyrrolo[2,3-b]pyridine-3-carbonyl)-phenyl]-3-p-tolyl-urea]
≤ 10 µM: B-Raf | B-Raf V600E | Fms | Kit

CCCCOc1ccc(NC(=O)Nc2cccc(C(=O)c3c[nH]c4ncc(Cl)cc34)c2)cc1 [Compound P-1741, 1-(4-Butoxy-phenyl)-3-[3-(5-chloro-1H-pyrrolo[2,3-b]pyridine-3-carbonyl)-phenyl]-urea]
≤ 10 µM: B-Raf | B-Raf V600E | Fms

O=C(c1c(F)ccc(NS(=O)(=O)c2ccc(C(F)(F)F)cc2)c1F)c1c[nH]c2ncc(-c3ccc(Cl)cc3)cc12 [Compound P-1670]
≤ 10 µM: B-Raf | B-Raf V600E | Fms
